Measurements reported in ChEMBL document CHEMBL1123145, “Synthesis of pyrrolizidine alkaloids indicine, intermedine, lycopsamine, and analogues and their N-oxides. Potential antitumor agents” (1985).

Legend:
Format in all cases: functional, Mus musculus
P388 [1] = assay: Weight difference observed in survivors treated for antitumor activity against P388 Lymphocytic Leukemia system at a dose of 84 mg/kg
P388 [2] = assay: Weight difference observed in survivors treated for antitumor activity against P388 Lymphocytic Leukemia system at a dose of 21 mg/kg
P388 [3] = assay: Number of Survivors determined for antitumor activity against P388 Lymphocytic Leukemia system on day 5 at a dose of 10.5 mg/kg (6 out of 6)
P388 [4] = assay: Number of Survivors determined for antitumor activity against P388 Lymphocytic Leukemia system on day 5 at a dose of 84 mg/kg(6 out of 6)
P388 [5] = assay: Survival rate of the animals determined for antitumor activity against P388 Lymphocytic Leukemia system at a dose of 21 mg/kg
P388 [6] = assay: Survival rate of the animals determined for antitumor activity against P388 Lymphocytic Leukemia system at a dose of 10.5 mg/kg
P388 [7] = assay: Number of Survivors determined for antitumor activity against P388 Lymphocytic Leukemia system on day 5 at a dose of 21 mg/kg(6 out of 6)
P388 [8] = assay: Weight difference observed in survivors treated for antitumor activity against P388 Lymphocytic Leukemia system at a dose of 10.5 mg/kg
P388 [9] = assay: Weight difference observed in survivors treated for antitumor activity against P388 Lymphocytic Leukemia system at a dose of 42 mg/kg
P388 [10] = assay: Number of Survivors determined for antitumor activity against P388 Lymphocytic Leukemia system on day 5 at a dose of 42 mg/kg
P388 [11] = assay: Number of Survivors determined for antitumor activity against P388 Lymphocytic Leukemia system on day 5 at a dose of 42 mg/kg(6 out of 6)
P388 [12] = assay: Survival rate of the animals determined for antitumor activity against P388 Lymphocytic Leukemia system at a dose of 84 mg/kg
P388 [13] = assay: Number of Survivors determined for antitumor activity against P388 Lymphocytic Leukemia system on day 5 at a dose of 8.5 mg/kg(6 out of 6)
P388 [14] = assay: Weight difference observed in survivors treated for antitumor activity against P388 Lymphocytic Leukemia system at a dose of 17 mg/kg
P388 [15] = assay: Weight difference observed in survivors treated for antitumor activity against P388 Lymphocytic Leukemia system at a dose of 68 mg/kg
P388 [16] = assay: Survival rate of the animals determined for antitumor activity against P388 Lymphocytic Leukemia system at a dose of 17 mg/kg
P388 [17] = assay: Survival rate of the animals determined for antitumor activity against P388 Lymphocytic Leukemia system at a dose of 34 mg/kg
P388 [18] = assay: Weight difference observed in survivors treated for antitumor activity against P388 Lymphocytic Leukemia system at a dose of 8.5 mg/kg
P388 [19] = assay: Survival rate of the animals determined for antitumor activity against P388 Lymphocytic Leukemia system at a dose of 68 mg/kg
P388 [20] = assay: Survival rate of the animals determined for antitumor activity against P388 Lymphocytic Leukemia system at a dose of 8.5 mg/kg
P388 [21] = assay: Number of Survivors determined for antitumor activity against P388 Lymphocytic Leukemia system on day 5 at a dose of 34 mg/kg (6 out of 6)
P388 [22] = assay: Number of Survivors determined for antitumor activity against P388 Lymphocytic Leukemia system on day 5 at a dose of 17 mg/kg (6 out of 6)
P388 [23] = assay: Number of Survivors determined for antitumor activity against P388 Lymphocytic Leukemia system on day 5 at a dose of 68 mg/kg(6 out of 6)
P388 [24] = assay: Weight difference observed in survivors treated for antitumor activity against P388 Lymphocytic Leukemia system at a dose of 34 mg/kg
P388 [25] = assay: Weight difference observed in survivors treated for antitumor activity against P388 Lymphocytic Leukemia system at a dose of 480 mg/kg
P388 [26] = assay: Weight difference observed in survivors treated for antitumor activity against P388 Lymphocytic Leukemia system at a dose of 30 mg/kg
P388 [27] = assay: Survival rate of the animals determined for antitumor activity against P388 Lymphocytic Leukemia system at a dose of 30 mg/kg
P388 [28] = assay: Weight difference observed in survivors treated for antitumor activity against P388 Lymphocytic Leukemia system at a dose of 15 mg/kg
P388 [29] = assay: Number of Survivors determined for antitumor activity against P388 Lymphocytic Leukemia system on day 5 at a dose of 480 mg/kg(6 out of 6)
P388 [30] = assay: Number of Survivors determined for antitumor activity against P388 Lymphocytic Leukemia system on day 5 at a dose of 240 mg/kg (6 out of 6)
P388 [31] = assay: Number of Survivors determined for antitumor activity against P388 Lymphocytic Leukemia system on day 5 at a dose of 15 mg/kg (6 out of 6)
P388 [32] = assay: Survival rate of the animals determined for antitumor activity against P388 Lymphocytic Leukemia system at a dose of 240 mg/kg
P388 [33] = assay: Number of Survivors determined for antitumor activity against P388 Lymphocytic Leukemia system on day 5 at a dose of 120 mg/kg (6 out of 6)
P388 [34] = assay: Weight difference observed in survivors treated for antitumor activity against P388 Lymphocytic Leukemia system at a dose of 60 mg/kg
P388 [35] = assay: Survival rate of the animals determined for antitumor activity against P388 Lymphocytic Leukemia system at a dose of 60 mg/kg
P388 [36] = assay: Weight difference observed in survivors treated for antitumor activity against P388 Lymphocytic Leukemia system at a dose of 120 mg/kg
P388 [37] = assay: Weight difference observed in survivors treated for antitumor activity against P388 Lymphocytic Leukemia system at a dose of 240 mg/kg
P388 [38] = assay: Survival rate of the animals determined for antitumor activity against P388 Lymphocytic Leukemia system at a dose of 120 mg/kg
P388 [39] = assay: Survival rate of the animals determined for antitumor activity against P388 Lymphocytic Leukemia system at a dose of 480 mg/kg
P388 [40] = assay: Number of Survivors determined for antitumor activity against P388 Lymphocytic Leukemia system on day 5 at a dose of 60 mg/kg (6 out of 6)
P388 [41] = assay: Survival rate of the animals determined for antitumor activity against P388 Lymphocytic Leukemia system at a dose of 15 mg/kg
P388 [42] = assay: Number of Survivors determined for antitumor activity against P388 Lymphocytic Leukemia system on day 5 at a dose of 30 mg/kg (6 out of 6)
P388 [43] = assay: Number of Survivors determined for antitumor activity against P388 Lymphocytic Leukemia system on day 5 at a dose of 240 mg/kg ([…])
P388 [44] = assay: Weight difference observed in survivors treated for antitumor activity against P388 Lymphocytic Leukemia system at a dose of 24 mg/kg
P388 [45] = assay: Survival rate of the animals determined for antitumor activity against P388 Lymphocytic Leukemia system at a dose of 192 mg/kg
P388 [46] = assay: Number of Survivors determined for antitumor activity against P388 Lymphocytic Leukemia system on day 5 at a dose of 96 mg/kg(5 out of 6)
P388 [47] = assay: Weight difference observed in survivors treated for antitumor activity against P388 Lymphocytic Leukemia system at a dose of 48 mg/kg
P388 [48] = assay: Survival rate of the animals determined for antitumor activity against P388 Lymphocytic Leukemia system at a dose of 96 mg/kg
P388 [49] = assay: Weight difference observed in survivors treated for antitumor activity against P388 Lymphocytic Leukemia system at a dose of 192 mg/kg
P388 [50] = assay: Survival rate of the animals determined for antitumor activity against P388 Lymphocytic Leukemia system at a dose of 48 mg/kg
P388 [51] = assay: Weight difference observed in survivors treated for antitumor activity against P388 Lymphocytic Leukemia system at a dose of 96 mg/kg

Row | SMILES | T-C (P388 [25]) | T-C (P388 [26]) | T/C (P388 [27]) [%] | T-C (P388 [28]) | Survivors (P388 [29]) | Survivors (P388 [31]) | T/C (P388 [32]) [%] | Survivors (P388 [33]) | T-C (P388 [34]) | T/C (P388 [35]) [%] | T-C (P388 [36]) | T-C (P388 [37]) | T/C (P388 [38]) [%] | T/C (P388 [39]) [%] | Survivors (P388 [40]) | T/C (P388 [41]) [%] | Survivors (P388 [42]) | further results
1 | O=C(Cc1ccccc1)OCC1=CC[N+]2([O-])CC[C@@H](O)C12.O=C(OCC1=CC[N+]2([O-])CC[C@@H](O)C12)c1ccccc1 (stereo partly drawn) | – | – | – | – | – | – | – | – | – | – | – | – | – | – | – | – | – | T-C (P388 [1]): 0.1; T-C (P388 [2]): -0.1; Survivors (P388 [3]): 6; Survivors (P388 [4]): 6; T/C (P388 [5]): 108%; T/C (P388 [6]): 104%; Survivors (P388 [7]): 6; T-C (P388 [8]): 0; T-C (P388 [9]): 0.3; T/C (P388 [10]): 117%; Survivors (P388 [11]): 6; T/C (P388 [12]): 114%
2 | CC(O)C(C)(O)C(=O)OCC1=CC[N+]2([O-])CC[C@@H](O)[C@@H]12 (stereo partly drawn) | – | – | – | – | – | – | – | – | – | – | – | – | – | – | – | – | – | Survivors (P388 [13]): 6; T-C (P388 [14]): 0; T-C (P388 [15]): -0.4; T/C (P388 [16]): 117%; T/C (P388 [17]): 127%; T-C (P388 [18]): -0.3; T/C (P388 [19]): 131%; T/C (P388 [20]): 115%; Survivors (P388 [21]): 6; Survivors (P388 [22]): 6; Survivors (P388 [23]): 6; T-C (P388 [24]): -0.4
3 | CC(C)CC(=O)OCC1=CCN2CC[C@@H](O)[C@@H]12 | -2.7 | -0.3 | 109 | -0.6 | 6 | 6 | 108 | 6 | -0.4 | 105 | -0.1 | -0.8 | 108 | 114 | 6 | 105 | 6 | Survivors (P388 [30]): 6
4 | O=C(Cc1ccccc1)OCC1=CCN2CC[C@@H](O)[C@@H]12 | -2.1 | -0.5 | 99 | -0.8 | 6 | 6 | 105 | 6 | -0.3 | 97 | -0.6 | -0.1 | 109 | 116 | 6 | 97 | 6 | Survivors (P388 [43]): 6
5 | CC(C)C(O)(C(=O)OCC1=CC[N+]2([O-])CC[C@@H](O)C12)C(C)O (stereo in doubt; form 2) | – | – | – | – | – | – | – | – | – | – | – | – | – | – | – | – | – | T-C (P388 [44]): -0.4; T/C (P388 [45]): 118%; Survivors (P388 [46]): 5; T-C (P388 [47]): 1.3; T/C (P388 [48]): 116%; T-C (P388 [49]): -4.8; T/C (P388 [50]): 100%; T-C (P388 [51]): 0.1
